Measured values taken from patent publication US9790188B2, “Benzimidazole derivatives and uses thereof” (Whitehead Institute for Biomedical Research, priority 2013, dated 2017).
Entries after “also recorded” stand apart in the source; their conditions may differ.

Assays:
[1] = system: Bap2; assay: Western blot of proteinA-tagged Bap2; type: cell-based, yeast; conditions: Rsp5-dependent
[2] = system: reactive oxygen species; assay: ROS detection (CM-H2DCFDA, flow cytometry) in α-syn yeast; type: cell-based; conditions: 10 μM, HiTox strain
Method: The generation of reactive oxygen species (ROS) detected from yeast expressing untagged α-syn using the ROS sensing dye, CM-H2DCFDA (Invitrogen), as previously described (9). Briefly, log phase raffinose cultures of α-syn (non-GFP tagged) were induced with galactose with or without ABI1 for 6 hours. At this time, the dye was added for an additional 30 minutes. Cells were then analyzed using an EasyCyte flow cytometer (Guava Technologies).

[3] = system: dopaminergic (DA) neurons; assay: C. elegans model of α-syn toxicity; type: in vivo; conditions: nematodes expressing α-syn and GFP in DA neurons
Method: Drug treatments of the C. elegans α-syn model were performed as previously described (6). Briefly, age-synchronized worms were obtained by treating gravid adults with 2% sodium hyopchlorite and 0.5M NaOH to isolate embryos (36). Variable concentrations of ABI1 or 0.2% DMSO was applied to embryos suspended in M9 buffer (22 mM KH2PO4, […], 85 mM NaCl, 1 mM MgSO4) (time 0), and incubated at 25 C for 24 hours to obtain a synchronized L1 population. Worms were washed three times in distilled water and one additional rinse in M9 buffer. The synchronized L1 worms were plated on regular nematode growth media (NGM) plates seeded with 100 uL of Eschericia coli (OP50). Worms were then transferred every other day to new plates to insure food abundance and eliminate progeny contamination. Worms were then analyzed seven days post-hatching. Analyses were carried out according to the criteria previously described (37). In each case, ˜30-40 animals were scored for the percent of WT animals. Experiments were completed in triplicate and averages calculated. A one-way ANOVA and Tukey's test was used to determine significance.

[4] = molecular target: T1, Nedd4 (Homo sapiens, UniProt P46934); conditions: pers. comm.; cited from earlier work
T1 sequence (P46934 1-1319): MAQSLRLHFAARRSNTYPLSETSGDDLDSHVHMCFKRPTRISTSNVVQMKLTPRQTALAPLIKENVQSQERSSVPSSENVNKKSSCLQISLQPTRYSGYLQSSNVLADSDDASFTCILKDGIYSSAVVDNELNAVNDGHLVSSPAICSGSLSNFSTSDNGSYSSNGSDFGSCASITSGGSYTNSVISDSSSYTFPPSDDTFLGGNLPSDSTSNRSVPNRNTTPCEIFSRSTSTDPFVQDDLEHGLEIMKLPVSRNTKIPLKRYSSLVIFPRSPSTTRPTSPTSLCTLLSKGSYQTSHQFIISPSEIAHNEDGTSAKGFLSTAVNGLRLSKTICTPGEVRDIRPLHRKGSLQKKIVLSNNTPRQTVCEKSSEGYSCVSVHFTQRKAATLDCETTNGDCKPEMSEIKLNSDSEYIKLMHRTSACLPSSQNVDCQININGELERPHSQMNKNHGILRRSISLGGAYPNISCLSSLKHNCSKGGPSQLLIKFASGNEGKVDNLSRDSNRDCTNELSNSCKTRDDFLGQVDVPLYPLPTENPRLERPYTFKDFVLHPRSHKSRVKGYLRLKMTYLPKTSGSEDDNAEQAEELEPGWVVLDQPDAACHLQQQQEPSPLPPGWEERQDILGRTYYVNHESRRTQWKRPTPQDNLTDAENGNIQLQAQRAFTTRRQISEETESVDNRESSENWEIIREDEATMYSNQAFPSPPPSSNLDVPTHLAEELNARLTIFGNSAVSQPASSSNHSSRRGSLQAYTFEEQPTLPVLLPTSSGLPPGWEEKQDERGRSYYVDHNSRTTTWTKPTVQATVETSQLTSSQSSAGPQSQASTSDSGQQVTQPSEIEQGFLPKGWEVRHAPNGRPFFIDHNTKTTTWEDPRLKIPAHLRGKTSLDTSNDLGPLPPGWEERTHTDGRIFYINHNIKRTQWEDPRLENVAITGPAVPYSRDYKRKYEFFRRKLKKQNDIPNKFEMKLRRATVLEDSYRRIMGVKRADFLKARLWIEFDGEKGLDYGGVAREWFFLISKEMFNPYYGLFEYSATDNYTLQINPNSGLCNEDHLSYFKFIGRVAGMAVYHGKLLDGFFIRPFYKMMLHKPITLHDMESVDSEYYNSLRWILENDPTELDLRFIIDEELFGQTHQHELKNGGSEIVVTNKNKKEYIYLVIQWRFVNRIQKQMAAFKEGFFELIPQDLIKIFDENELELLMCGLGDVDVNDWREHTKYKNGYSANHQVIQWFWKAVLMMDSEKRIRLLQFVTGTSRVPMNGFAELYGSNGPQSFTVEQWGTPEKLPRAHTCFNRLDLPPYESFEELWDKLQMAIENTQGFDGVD

[5] = system: Cpy; assay: CPY western blot, ER-to-Golgi trafficking in α-syn yeast; type: cell-based; conditions: α-syn-expressing yeast
Method: CPY western blots were performed using culture conditions as described above. An anti-Cpy antibody (Invitrogen, A6428) was used at 1:5,000. Post-ER:ER ratios were quantitated using an IRDye800 secondary antibody (Li-Cor Odyssey, Rockland Immunochemicals) and scanned with the Li-Cor Odyssey imaging system. Significance was determined using a one-way ANOVA and Tukey's test of significance.

## Cc1cccc(-n2cnc3cc(C(=O)NCc4ccccc4Cl)ccc32)c1 [ABI, N-(2-chlorobenzyl)-1-(m-tolyl)-1H-benzo[d]imidazole-5-carboxamide]
[1]
  Bap2 levels / degradation: promotes Bap2 degradation
[2]
  generation of reactive oxygen species (% of ROS-positive cells): completely abolished; also recorded: reduced the % of ROS-positive cells
[3]
  rescue of DA neurons from α-syn toxicity: partial, yet highly significant, rescue
[4]
  ubiquitination of recombinant Nedd4 in vitro: did not enhance ubiquitination
[5]
  ER-to-Golgi trafficking (Cpy) / forward protein trafficking through the ER: directly ameliorated an ER-Golgi trafficking block
